Measurements reported in patent US20230265151A1, “GIP/GLP1 CO-AGONIST COMPOUNDS” (priority 2020, published 2023).
Where two headings read alike, the source gives them in different places.

Columns and labels:
[1] = molecular target: T1, human GIP receptor (hGIPR) (Homo sapiens, UniProt P48546); experiment: [125I]-GIP binding, SPA with membranes of CHO cells expressing hGIPR; settings: human GIPR; geometric mean (SEM, n); read-out: Binding Affinity Ki, nM (SEM, n) hGIPR
T1 construct: expressed in transfected cells; crude membranes
T1 sequence (P48546 22-466): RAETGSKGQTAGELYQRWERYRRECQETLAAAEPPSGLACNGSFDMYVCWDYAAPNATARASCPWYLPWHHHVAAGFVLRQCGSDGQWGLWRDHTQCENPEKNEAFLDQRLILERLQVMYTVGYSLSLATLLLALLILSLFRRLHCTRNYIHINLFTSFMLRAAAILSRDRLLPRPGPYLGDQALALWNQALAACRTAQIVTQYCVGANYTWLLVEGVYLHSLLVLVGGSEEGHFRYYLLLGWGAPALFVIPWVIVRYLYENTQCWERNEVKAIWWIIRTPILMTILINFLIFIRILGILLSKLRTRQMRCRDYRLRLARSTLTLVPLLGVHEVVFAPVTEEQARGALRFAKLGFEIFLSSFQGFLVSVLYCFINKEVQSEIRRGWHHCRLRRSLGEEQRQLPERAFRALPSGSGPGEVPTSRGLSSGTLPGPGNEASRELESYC

hGIPR = molecular target: T2, hGIPR (Homo sapiens, UniProt P48546); experiment: Functional cAMP formation (HTRF) in HEK-293 clonal cells expressing hGIPR, 0.1% bovine casein, without or with 1.0% human serum albumin; type: cell-based; settings: for EC50: read-out: hGIPR EC50, nM (SEM, n); for Emax: percent of maximal response to GIP(1-42)NH2, read-out: hGIPR Emax, % ± SEM
T2 construct: expressed in transfected cells
T2 sequence (P48546 22-466): T1 sequence (P48546 22-466)
Procedure, shortened: (§1)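 Cells were stimulated with peptide for 30 min at 37° C, then intracellular cAMP was measured by competitive HTRF (665/620 nm ratio) and converted to nM using a cAMP standard curve. Relative EC50 and Emax came from four-parameter logistic fits of percent maximal response against peptide concentration.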

hGCGR = molecular target: T3, hGCGR (Homo sapiens, UniProt P47871); experiment: Functional cAMP formation (HTRF) in HEK-293 clonal cells expressing hGCGR, 0.1% bovine casein, without or with 1.0% human serum albumin; type: cell-based; settings: read-out: hGCGR EC50, nM (SEM, n)
T3 construct: expressed in transfected cells
T3 sequence (P47871 26-477): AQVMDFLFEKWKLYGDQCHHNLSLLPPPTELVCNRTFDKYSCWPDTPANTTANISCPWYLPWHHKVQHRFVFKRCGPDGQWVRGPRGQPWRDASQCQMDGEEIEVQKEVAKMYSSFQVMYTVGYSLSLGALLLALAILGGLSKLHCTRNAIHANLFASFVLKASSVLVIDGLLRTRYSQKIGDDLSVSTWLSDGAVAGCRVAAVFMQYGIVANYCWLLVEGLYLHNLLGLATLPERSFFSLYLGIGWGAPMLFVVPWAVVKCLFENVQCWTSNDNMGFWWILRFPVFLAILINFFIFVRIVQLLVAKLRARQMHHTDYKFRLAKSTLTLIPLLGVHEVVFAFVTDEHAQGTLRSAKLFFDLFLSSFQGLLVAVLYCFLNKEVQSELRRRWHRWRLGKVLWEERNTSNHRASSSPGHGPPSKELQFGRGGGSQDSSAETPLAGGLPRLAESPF
Procedure, shortened: as §1

hGLP-1R = hGLP-1R (Homo sapiens, UniProt P43220); experiment: Functional cAMP formation (HTRF) in HEK-293 clonal cells expressing hGLP-1R, 0.1% bovine casein, without or with 1.0% human serum albumin; type: cell-based; parameters: expressed in transfected cells; settings: 37° C.; for EC50: read-out: hGLP-1R EC50, nM (SEM, n); for Emax: HEK293, cAMP, percent of maximal response to GLP-1(7-36)NH2, read-out: hGLP-1R Emax, % ± SEM
Chain of hGLP-1R (P43220 24-463): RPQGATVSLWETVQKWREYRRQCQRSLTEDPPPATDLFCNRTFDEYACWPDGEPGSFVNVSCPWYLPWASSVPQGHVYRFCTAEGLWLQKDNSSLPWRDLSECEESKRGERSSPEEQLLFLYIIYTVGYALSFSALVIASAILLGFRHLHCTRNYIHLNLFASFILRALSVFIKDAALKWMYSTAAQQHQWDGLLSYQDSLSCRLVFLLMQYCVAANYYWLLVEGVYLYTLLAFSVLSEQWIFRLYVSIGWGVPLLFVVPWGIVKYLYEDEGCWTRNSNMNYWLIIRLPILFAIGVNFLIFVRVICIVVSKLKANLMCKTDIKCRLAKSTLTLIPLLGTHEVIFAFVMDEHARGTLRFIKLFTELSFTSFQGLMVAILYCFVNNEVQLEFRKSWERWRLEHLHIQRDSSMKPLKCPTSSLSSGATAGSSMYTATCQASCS
Procedure, shortened: as §1

[2] = 0.1% bovine casein and 1.0% human serum albumin, 37° C., geometric mean
[3] = HEK293, 0.1% bovine casein and 1.0% human serum albumin, 37° C.
[4] = cAMP, incubated at 37° C., 0.1% bovine casein (no human serum albumin), geometric mean
[5] = 0.1% bovine casein and 1.0% human serum albumin, geometric mean
[6] = HEK293, cAMP, 37° C., 0.1% bovine casein and 1.0% human serum albumin
[7] = HEK293, cAMP, 37° C., 0.1% bovine casein, arithmetic mean
[8] = cAMP, 37° C., 0.1% bovine casein (no human serum albumin), geometric mean
[9] = cAMP, 37° C., 0.1% bovine casein and 1.0% human serum albumin, geometric mean (SEM, n)
[10] = cAMP, 0.1% bovine casein (no human serum albumin), geometric mean

| Structure (SMILES) | Ki [1] [nM] | EC50 (hGIPR; [2]) [nM] | Emax (hGIPR; [3]) [%] | EC50 (hGIPR; [4]) [nM] | EC50 (hGCGR; [2]) [nM] | EC50 (hGCGR; [4]) [nM] | EC50 (hGLP-1R; [5]) [nM] | Emax (hGIPR; [6]) [%] | Emax (hGIPR; [7]) [%] | EC50 (hGIPR; [8]) [nM] | EC50 (hGIPR; [9]) [nM] | EC50 (hGCGR; [8]) [nM] | EC50 (hGCGR; [9]) [nM] | Emax (hGLP-1R; 0.1% bovine casein, arithmetic mean) [%] | EC50 (hGLP-1R; [10]) [nM] | Emax (hGLP-1R; 0.1% bovine casein and 1.0% human serum albumin) [%] | EC50 (hGLP-1R; cAMP, 0.1% bovine casein and 1.0% human serum albumin, geometric mean (SEM, n)) [nM] |
| --- | --- | --- | --- | --- | --- | --- | --- | --- | --- | --- | --- | --- | --- | --- | --- | --- | --- |
| CCCCCCCCCCCCCCCC(=O)N[C@@H](CCC(=O)NCCOCCOCC(=O)NCCOCCOCC(=O)NCCCC[C@H](NC(=O)CNC(=O)CNC(=O)[C@H](CCCCNC(=O)COCCOCCNC(=O)COCCOCCNC(=O)CC[C@H](NC(=O)CCCCCCCCCCCCCCC)C(=O)O)NC(=O)[C@@H](NC(=O)[C@H](CC(C)C)NC(=O)[C@](C)(Cc1ccc(O)cc1)NC(=O)[C@@H](CCC(=O)O)NC(=O)[C@@H](NC(=O)[C@H](Cc1ccccc1)NC(=O)[C@H](CCC(=O)O)NC(=O)C(C)(C)NC(=O)[C@H](CCC(N)=O)NC(=O)[C@H](C)NC(=O)[C@@H](NC(=O)[C@H](CCCN)NC(=O)[C@H](CC(=O)O)NC(=O)[C@H](CC(C)C)NC(=O)[C@](C)(CC(C)C)NC(=O)[C@@H](NC(=O)[C@H](CO)NC(=O)[C@H](Cc1ccncc1)NC(=O)[C@H](CC(=O)O)NC(=O)[C@H](CO)NC(=O)[C@@H](NC(=O)[C@](C)(Cc1ccccc1F)NC(=O)[C@@H](NC(=O)CNC(=O)[C@H](CCC(=O)O)NC(=O)C(C)(C)NC(=O)[C@@H](N)Cc1ccc(O)cc1)[C@@H](C)O)[C@@H](C)O)[C@@H](C)CC)[C@@H](C)CC)[C@@H](C)CC)[C@@H](C)CC)C(=O)N[C@@H](CO)C(=O)N[C@@H](CO)C(=O)NCC(=O)N[C@@H](C)C(=O)N1CCC[C@H]1C(=O)N1CCC[C@H]1C(=O)N1CCC[C@H]1C(=O)N[C@@H](CO)C(N)=O)C(=O)O [Example 26] | 0.0863 | 1.2 | 95.4 ± 2.54 | 0.0218 | > 9950 | > 9950 | 3.93 | – | – | – | – | – | – | – | – | – | – |
| CCCC[C@H](NC(=O)[C@H](CC(=O)O)NC(=O)[C@H](CO)NC(=O)[C@@H](NC(=O)[C@](C)(Cc1ccccc1F)NC(=O)[C@@H](NC(=O)CNC(=O)[C@H](CCC(=O)O)NC(=O)C(C)(C)NC(=O)[C@@H](N)Cc1ccc(O)cc1)[C@@H](C)O)[C@@H](C)O)C(=O)N[C@@H](CO)C(=O)N[C@H](C(=O)N[C@@](C)(CC(C)C)C(=O)N[C@@H](CC(C)C)C(=O)N[C@@H](CC(=O)O)C(=O)N[C@@H](CCCN)C(=O)N[C@@H](CCC(N)=O)C(=O)N[C@@H](C)C(=O)N[C@@H](CCC(N)=O)C(=O)NC(C)(C)C(=O)N[C@@H](CCCN)C(=O)N[C@@H](Cc1ccccc1)C(=O)N[C@H](C(=O)N[C@@H](CCCCNC(=O)COCCOCCNC(=O)COCCOCCNC(=O)CC[C@H](NC(=O)CCCCCCCCCCCCC(=O)O)C(=O)O)C(=O)N[C@@](C)(Cc1ccc(O)cc1)C(=O)N[C@@H](CC(C)C)C(=O)N[C@H](C(=O)N[C@@H](CCCCNC(=O)COCCOCCNC(=O)COCCOCCNC(=O)CC[C@H](NC(=O)CCCCCCCCCCCCC(=O)O)C(=O)O)C(=O)NCC(=O)NCC(=O)N1CCC[C@H]1C(=O)N[C@@H](CO)C(=O)N[C@@H](CO)C(=O)NCC(=O)N[C@@H](C)C(=O)N1CCC[C@H]1C(=O)N1CCC[C@H]1C(=O)N1CCC[C@H]1C(=O)N[C@@H](CO)C(N)=O)[C@@H](C)CC)[C@@H](C)CC)[C@@H](C)CC [Example 490] | 0.0288 | – | – | – | – | – | – | 97.1 | 110 | 0.0122 | 0.976 | > 9950 | > 9950 | 115 | 0.143 | – | – |
| CCCCCCCCCCCCCCCC(=O)N[C@@H](CCC(=O)NCCOCCOCC(=O)NCCOCCOCC(=O)NCCCC[C@H](NC(=O)[C@H](CO)NC(=O)[C@@H]1CCCN1C(=O)[C@@H]1CCCN1C(=O)[C@@H]1CCCN1C(=O)[C@H](C)NC(=O)CNC(=O)[C@H](CO)NC(=O)[C@H](CO)NC(=O)[C@@H]1CCCN1C(=O)CNC(=O)CNC(=O)[C@H](CCC(=O)O)NC(=O)[C@@H](NC(=O)[C@H](CC(C)C)NC(=O)[C@](C)(Cc1ccc(O)cc1)NC(=O)[C@@H](CCC(=O)O)NC(=O)[C@@H](NC(=O)[C@H](Cc1ccccc1)NC(=O)[C@H](CCC(=O)O)NC(=O)C(C)(C)NC(=O)[C@H](CCC(N)=O)NC(=O)[C@H](C)NC(=O)[C@H](CCCCNC(=O)COCCOCCNC(=O)COCCOCCNC(=O)CC[C@H](NC(=O)CCCCCCCCCCCCCCC)C(=O)O)NC(=O)[C@H](CCCN)NC(=O)[C@H](CC(=O)O)NC(=O)[C@H](CC(C)C)NC(=O)[C@](C)(CC(C)C)NC(=O)[C@@H](NC(=O)[C@H](CO)NC(=O)[C@H](Cc1ccncc1)NC(=O)[C@H](CC(=O)O)NC(=O)[C@H](CO)NC(=O)[C@@H](NC(=O)[C@](C)(Cc1ccccc1F)NC(=O)[C@@H](NC(=O)CNC(=O)[C@H](CCC(=O)O)NC(=O)C(C)(C)NC(=O)[C@@H](N)Cc1ccc(O)cc1)[C@@H](C)O)[C@@H](C)O)[C@@H](C)CC)[C@@H](C)CC)[C@@H](C)CC)C(N)=O)C(=O)O [Example 25] | 0.0293 | 0.274 | 94.3 ± 1.73 | – | > 9950 | > 9950 | 1.11 | – | – | – | – | – | – | – | – | – | – |
| CCCCCCCCCCCC(=O)N[C@@H](CCC(=O)NCCOCCOCC(=O)NCCOCCOCC(=O)NCCCC[C@H](NC(=O)[C@H](CO)NC(=O)[C@@H]1CCCN1C(=O)[C@@H]1CCCN1C(=O)[C@@H]1CCCN1C(=O)[C@H](C)NC(=O)CNC(=O)[C@H](CO)NC(=O)[C@H](CO)NC(=O)[C@@H]1CCCN1C(=O)CNC(=O)CNC(=O)[C@H](CCC(=O)O)NC(=O)[C@@H](NC(=O)[C@H](CC(C)C)NC(=O)[C@](C)(Cc1ccc(O)cc1)NC(=O)[C@@H](CCC(=O)O)NC(=O)[C@@H](NC(=O)[C@H](Cc1ccccc1)NC(=O)[C@H](CCCN)NC(=O)C(C)(C)NC(=O)[C@H](CCC(N)=O)NC(=O)[C@H](C)NC(=O)[C@H](CCCCNC(=O)COCCOCCNC(=O)COCCOCCNC(=O)CC[C@H](NC(=O)CCCCCCCCCCC)C(=O)O)NC(=O)[C@H](CCCN)NC(=O)[C@H](CC(=O)O)NC(=O)[C@H](CC(C)C)NC(=O)[C@](C)(CC(C)C)NC(=O)[C@@H](NC(=O)C(C)(C)NC(=O)[C@H](Cc1ccncc1)NC(=O)[C@H](CC(=O)O)NC(=O)[C@H](CO)NC(=O)[C@@H](NC(=O)[C@](C)(Cc1ccccc1F)NC(=O)[C@@H](NC(=O)CNC(=O)[C@H](CCC(=O)O)NC(=O)C(C)(C)NC(=O)[C@@H](N)Cc1ccc(O)cc1)[C@@H](C)O)[C@@H](C)O)[C@@H](C)CC)[C@@H](C)CC)[C@@H](C)CC)C(N)=O)C(=O)O [Example 418] | 0.0174 | – | – | – | – | – | – | 87.2 | 91 | 0.00599 | 0.126 | > 9950 | > 9950 | – | 0.0603 | 98.8 | 1.72 |
